Where a name gives a salt, the structure may show the parent alone.
Key:
[1] = system: Human colon carcinoma HCT116 cell line; experiment: Tumor growth inhibition in an animal model (HCT116 xenograft); assay type: in vivo, Balb/c nude mouse; conditions: oral daily for 12 days; for tumor growth inhibition: vs vehicle control
Procedure: Tumor size was measured twice a week using Caliper. […] A vehicle control was 20% propylene glycol (PG) and a positive control was Xeloda at 100 mg/kg.

[2] = system: Human glioblastoma U-87MG cell line; experiment: Tumor growth inhibition by combined administration in an animal model (U-87MG xenograft); conditions: oral daily for 30 days; for tumor growth inhibition: vs vehicle control
Procedure: Human glioblastoma U-87MG cell line of 5×10^6 cells/0.1 ml PBS was injected subcutaneously into the right flank of a Balb/c nude mouse. When a tumor grew to 150 mm^3, 5 mice were assigned for each group so that tumor sizes of all groups are consistent and a test compound was orally administered daily. Tumor size was measured three times a week using Caliper. […] For the combined administration, TMZ was orally administered daily for the first 5 days. For the single administration, the compound of Example 61 was orally administered daily for 30 days. For the combined administration, the compound of Example 61 was administered orally daily for 34 days. 20% propylene glycol (PG) was used as a vehicle control. Tumor size (volume) was calculated from the tumor length measured in each animal using the following Equation 1.
Tumor volume=(length of major axis×length of minor axis)/2 [Equation 1]

[3] = system: human colon carcinoma cell line HCT116; experiment: Cell cycle change by flow cytometry, cancer cells; assay type: cell-based; conditions: 24 hrs
Procedure: (§1) A human colon carcinoma cell line HCT116 and a human normal lung cell line MRC5 were cultured in DMEM medium containing 10% FBS. Each cultured cells were harvested, placed in 6 well plate at 1×10^6 cells/well, and cultured at 5% CO2 and 37° C. for 16 hrs. The compounds of the above Examples at 75 nM and 150 nM in DMEM containing 5% FBS were added to the cells in each well, and after 24 hrs a change in the cell cycle was analyzed using a flow cytometry. Media of treatment groups and a control group were removed, trypsin was added to isolate cells from the plates and the cells were centrifuged at 1000 g for 3 min. The isolated cells were washed with a cold phosphate buffer (PBS) two times. Afterwards, 1 ml of 70% ethanol was added to the cells and the cells were maintained at 4° C. for 30 min or more to fix the cells. The fixed cells were centrifuged at 1000 g for 3 min to remove ethanol, and washed with phosphate buffer (PBS) two times to remove ethanol completely. The washed cells were suspended in 250 ul of PBS, 6.25 ul of 10 mg/ml RNaseA was added to the suspension and reacted for 15 min at room temperature to degrade all RNA. 12.5 ul of 1 mg/ml propidium iodide (PI, sigma) was added to stain intracellular DNA. The cell cycles of 10,000 stained cells were measured using FACS calibur (Becton-Dickinson, USA) and cell numbers present in G1, S and G2/M phases were calculated as percentage using a cell cycle analysis program. Tables 3 and 4 show the results of cell cycle analysis for the compound obtained in Example 1 in cancer cells and normal cells, respectively.

[4] = system: human normal lung cell line MRC5; experiment: Cell cycle change by flow cytometry, normal cells; assay type: cell-based; conditions: 24 hrs
Procedure: as §1

Aβ (amyloid β protein) = experiment: Inhibition of Aβ generation in B103/APP cells (Aβ42 ELISA); assay type: cell-based; conditions: Rattus norvegicus, 72 hrs
Procedure: The APP gene was inserted into B103 cells so that APP could be stably expressed and the resulting B103/APP cells were used to confirm inhibition of APP phosphorylation and Aβ generation.
Further, to confirm whether Aβ generation is reduced due to APP phosphorylation inhibition, 5×10^5 B103/APP cells were cultured in a 6-well plate for 16 hrs. Afterwards, the compounds obtained in the above Examples were added at 100 nM, 75 nM, 50 nM, 25 nM, 12.5 nM to a medium containing 500 ug/ml of G418 and 0.5% FBS and incubated for 72 hrs. After 72 hrs, the amount of Aβ was quantified using the medium by Human Aβ42 ELISA kit (Invitrogen).

With `Nc1nccc(-c2ccc(O)c(-c3ccnc(N)n3)n2)n1` [Example 61, 2,6-bis(2-aminopyrimidin-4-yl)pyridin-3-ol 3hydrochloride] the Tumor size ([1]; 1 mpk) was 1082.4 ± 994.6 mm^3, the tumor growth inhibition ([1]; 1 mpk) was 41.3% and the Tumor size ([1]; 3 mpk) was 773.7 ± 253.9 mm^3. It also gave a tumor growth inhibition ([1]; 3 mpk) of 58.0%, a Tumor size ([1]; 10 mpk) of 647.4 ± 462.1 mm^3 and a tumor growth inhibition ([1]; 10 mpk) of 64.9%. For the same molecule, the Tumor size ([1]; 30 mpk) was 403.4 ± 224.1 mm^3, the tumor growth inhibition ([1]; 30 mpk) was 78.1% and the Tumor size ([2]; 15 mpk alone) was 3503.3 ± 674.9 mm^3. It also gave a tumor growth inhibition ([2]; 15 mpk alone) of 16.8%, a Tumor size ([2]; 30 mpk alone) of 2015.0 ± 1023 mm^3 and a tumor growth inhibition ([2]; 30 mpk alone) of 52.2%.
For `Nc1nccc(-c2ccc(O)c(-c3ccnc(N)n3)n2)n1` [Example 1, 2,6-bis(2-aminopyrimidin-4-yl)pyridin-3-ol], the “G1 (cell numbers as percentage)” value ([3]; HCT116, 75 nM) was 22.3%, the “G2/M (cell numbers as percentage)” value ([3]; HCT116, 75 nM) was 51.5% and the “Polyploidy (cell numbers as percentage)” value ([3]; HCT116, 75 nM) was 16.3%. The “S (cell numbers as percentage)” value ([3]; HCT116, 75 nM) was 5.3%, the “Sub-G1 (cell numbers as percentage)” value ([3]; HCT116, 75 nM) was 4.9% and the “G1 (cell numbers as percentage)” value ([3]; HCT116, 150 nM) was 4.3%. For the same molecule, the “G2/M (cell numbers as percentage)” value ([3]; HCT116, 150 nM) was 54.4%, the “Polyploidy (cell numbers as percentage)” value ([3]; HCT116, 150 nM) was 23.3% and the “S (cell numbers as percentage)” value ([3]; HCT116, 150 nM) was 2.6%. For the same molecule, the “Sub-G1 (cell numbers as percentage)” value ([3]; HCT116, 150 nM) was 5.8%, the “G1 (cell numbers as percentage)” value ([4]; MRC5, 75 nM) was 50.7% and the “G2/M (cell numbers as percentage)” value ([4]; MRC5, 75 nM) was 22.8%. The “Polyploidy (cell numbers as percentage)” value ([4]; MRC5, 75 nM) was 8.8%, the “S (cell numbers as percentage)” value ([4]; MRC5, 75 nM) was 9.1% and the “Sub-G1 (cell numbers as percentage)” value ([4]; MRC5, 75 nM) was 8.8%. For the same molecule, the “G1 (cell numbers as percentage)” value ([4]; MRC5, 150 nM) was 44.0%, the “G2/M (cell numbers as percentage)” value ([4]; MRC5, 150 nM) was 26.6% and the “Polyploidy (cell numbers as percentage)” value ([4]; MRC5, 150 nM) was 10.2%. The “S (cell numbers as percentage)” value ([4]; MRC5, 150 nM) was 6.8% and the “Sub-G1 (cell numbers as percentage)” value ([4]; MRC5, 150 nM) was 12.8%.
`Cc1cc(-c2nc(-c3ccnc(N)c3F)ccc2O)nc(N)n1` [Example 71, 2′-amino-6-(2-amino-6-methylpyrimidin-4-yl)-3′-fluoro-[2,4′-bipyridin]-5-ol 3hydrochloride] showed an inhibition at 0.0125 µM (Aβ (amyloid β protein); 12.5 nM) of 37.6%, an inhibition at 0.025 µM (Aβ (amyloid β protein); 25 nM) of 36.2% and an inhibition at 0.05 µM (Aβ (amyloid β protein); 50 nM) of 46.7%. The inhibition at 0.075 µM (Aβ (amyloid β protein); 75 nM) was 76.8% and the inhibition at 0.1 µM (Aβ (amyloid β protein); 100 nM) was 100%.
